Assay results published in article PMC6261607, “Novel high–throughput myofibroblast assays identify agonists with therapeutic potential in pulmonary fibrosis that act via EP2 and EP4 receptors” (PLoS ONE, 2018).
Like-named read-outs stand apart in the source and are kept apart here.

Experiments:
[1] = test system: COL1 protein in TGF–β1–induced NHLF myofibroblasts; assay: MS/MS COL1, NHLF myofibroblast reversal assay; assay type: cell-based, human; conditions: Homo sapiens, Col1
Procedure: Cell culture medium was removed and cells were lysed on ice by adding 5 μl / well of pre–cooled protein extraction buffer containing 10 mM Tris–HCl (pH 8.0), 6 M urea and 2 M thiourea and shaking on ice on a plate shaker at 600 rpm for 30 min.
Cell lysate was transferred to a 96–well polypropylene–PCR–plate. 15 μl / well denaturation buffer (6 M urea, 50 mM ammonium bicarbonate) and 2 μl / well of 50 mM TCEP were added and samples were denatured for 1 h at 60°C using the Veriti 96–well Fast Thermal Cycler System (Applied Biosystem) with a heated lid. Plates were allowed to cool to RT. Subsequently, 2 μl of 100 mM iodoacetamide were added per well to derivatize cysteine residues. Plates were then sealed and vortexed for 2 min in the dark and incubated for 30 min at 37°C in a thermal cycler with a heated lid. 90 μl of 50 mM ammonium bicarbonate pH 7.8 were added, followed by the addition of 10 μl of trypsin at 0.02 μg / ml. Samples were trypsin–digested overnight at 37°C in a thermal cycler with heated lid. […] Samples were desalted under vacuum using an Oasis HLB 96–well (30 μm particle size, 5 mg sorbent / well) reverse phase cartridge according to the manufacturer’s instructions and eluted with 170 μl of 90% acetonitrile, 0.1% formic acid. Samples were dried down with a flow of nitrogen at 40°C, left to cool to RT and re–suspended in 40 μl 5% acetonitrile, 0.1% formic acid on a plate shaker set to 1400 rpm for 5 min. Plates were centrifuged at 4,000 rpm for 10 min and 2 times 12 μl / well of supernatant were transferred into separate 96–well plates (Greiner Bio–One), sealed and stored at 4°C until analyzed by MS / MS.
Surrogate tryptic peptides were chosen for detection of COL1 (COL1A1), α–SMA (ACTA) and tubulin (TBA1A1) and crude synthetic peptides were purchased from Thermo Fischer. After several rounds of optimization following standard workflows, […] (COL1 / COL1A1), […] (α–SMA / ACTA) and […] LC–MS / MS analysis was performed on a RapidFire™ RF360 system (Agilent Technologies) coupled to an API 5500 (ABSciex) with positive ion electrospray ionization. […] Detection was performed using multiple reaction monitoring (MRM) mode to monitor parent⟶product ion transitions (m / z). […] The source parameters were curtain gas (CUR) nitrogen: 20 psig; collision gas (CAD): 7 psig; ion source gas 1: 50.0 psig; ion source gas 2: 50.0 psig; ion spray voltage (IS): 5500 V; turbo heater temperature (TEM): 600°C; entrance potential (EP): 10V. Peak areas for COL1A1 and ACTA were normalized by dividing by TBA1A peak area.
To identify compounds with potential to revert differentiated myofibroblasts to fibroblasts the assay procedures were modified. After 24 h starvation, NHLF cells were stimulated with 5 ng / ml TGF–β1 for 24 h. At t = 24 h TGF–β1 was removed and either vehicle (DMSO) or compounds were added and incubated with the cells for a further 72 h.

[2] = test system: TGF–β1–induced NHLF myofibroblasts; assay: HCA, NHLF myofibroblast reversal assay; assay type: cell-based; conditions: Homo sapiens; reversal assay: 24 h 5 ng/ml TGF–β1, washed, 72 h compound
Procedure: Each well of a 384–well clear bottom microtiter plate was coated with 0.1% laminin solution for 60 min at 37°C and rinsed once with PBS. NHLF cells were seeded at a density of 750 cells / well in a volume of 40 μl FGM–2 medium and grown for 24 h at 37°C, 5% CO2 and 95% relative humidity. The plate was washed 3 times with starvation medium, e.g. fibroblast basal medium (FBM, Lonza) supplemented with 0.1% faf BSA, 100 units / ml of penicillin and 100 μg / ml of streptomycin and 250 ng / ml amphotericin B, and then starved for 24 h in 30 μl volume. NHLF were differentiated into myofibroblasts by incubation with 5 ng / ml TGF–β1 (from a stock of 20 μg / ml in 4 mM HCl, 1 mg / ml BSA) for 48 h. Compounds were prepared as 5x stocks in starvation medium and added to the starved cells to a final 1x concentration concomitant with TGF–β1 addition. The final DMSO concentration in the assay was 0.6% in all wells. 48 h after TGF–β1 addition, the medium was removed and the cells were fixed in methanol for 10 min at room temperature (RT). After fixation, cells were washed 3 times with 1 x PBS and either stored at 4°C for up to 3 days or further processed. The fixed cells were blocked with 10% goat serum in PBS, 0.25% Tween–20 for 60 min at RT. The primary antibodies, i.e., mouse monoclonal anti–α–SMA (Sigma–Aldrich) and rabbit anti–FN antibody (Sigma–Aldrich), were diluted 1:400 in 10% goat serum in PBS, 0.25% Tween–20 and the fixed cells were incubated with the antibodies for 60 min at RT. After washing the cells 3 times with 1 x PBS, 0.25% Tween–20 the detection antibodies, i.e., goat anti–mouse AlexaFluor 488 (Invitrogen) and goat anti–rabbit AlexaFluor 647 (Invitrogen) were diluted 1:1000 in 1 x PBS, 0.25% Tween–20 and incubated for 1 h at RT together with 1 μg / ml DAPI to stain nuclei and HCS CellMask Orange Stain to label the entire cell. The stained cells were washed 3 times with 1 x PBS containing 0.25% Tween–20, followed by three washes in 1 x PBS, sealed with backing tape and stored at 4°C. Images were acquired on the Opera Phenix confocal high–content screening system (Perkin Elmer) using the 20–x water immersion lens.
Image analysis: The image data acquired with the HCS system were uploaded to ORBIT, an open source image analysis software developed at Idorsia Pharmaceuticals Ltd (http://www.orbit.bio), and analyzed using 288 CPUs in parallel on our computing grid with the ORBIT Cell–Classifier framework using an appropriate CellProfiler pipeline. DAPI stained nuclei were used to identify cells. α–SMA and FN regions were then identified and mapped to the corresponding nuclei for background correction, cell segmentation and cell feature computation to identify, classify and weigh over 400 features per cell. The computed features (S1 Table) comprise, but are not limited to, granularity, intensity, texture, area, shape and solidity of a cell in both α–SMA–and FN–expressing regions. The 0% compound effect (5 ng / ml TGF–β1) and the 100% compound effect (0 ng / ml TGF–β1) controls, were used to train and validate a support vector machine (SVM), a supervised learning model with associated learning algorithm that, once successfully validated, was applied to every cell in every well of the assayed microtiter plate. The SVM allowed autonomous weighting and classification of the characteristics and thus enabled the classifier to decide which characteristics were most relevant for the differentiation of the cell types. […] The classification of each cell was aggregated to a cell type ratio per well, represented as the computed percentage effect value per well indicative of the degree of myofibroblast differentiation. E.g. 100% equals complete myofibroblast differentiation, 0% indicates a pure fibroblast population without any signs of differentiation.
To identify compounds with potential to revert differentiated myofibroblasts to fibroblasts the assay procedures were modified.

[3] = reversal assay: 24 h 5 ng/ml TGF–β1, washed, 72 h compound, normalized to tubulin, read-out: MS / MS COL1 IC50
[4] = NHLF pre–stimulated 24 h with 5 ng/ml TGF–β1, representative experiment, S7 Fig E, read-out: IC50, reversal of COL1 (curve of a single experiment)

CC(C)(C)c1ccc(CN(Cc2cccc(OCC(=O)O)c2)S(=O)(=O)c2cccnc2)cc1 [Evatanepag] showed an IC50 [1, 3] of 24 nM and an IC50 [2] of 2300 nM.
In the case of O=C(CC1NCCCC1O)Cn1cnc2cc(Br)c(Cl)cc2c1=O (centres unmarked) [Halofuginone], the IC50 [1, 4] is reported as 59 nM, the IC50 [1, 3] is reported as 116 ± 81 nM and the IC50 [2] is reported as 120 nM.
Compound C[C@]12CC[C@H](O)C[C@H]1CC[C@@H]1[C@@H]2C[C@@H](O)[C@]2(C)[C@@H](C3=CC(=O)OC3)CC[C@]12O [Digoxigenin] has an IC50 [1, 3] of 54 nM and an IC50 [2] of 76 nM.
For COC(=O)c1ccc2c(c1)NC(=O)/C2=C(\Nc1ccc(N(C)C(=O)CN2CCN(C)CC2)cc1)c1ccccc1 [Nintedanib], the IC50 [1, 3] was 626 nM and the IC50 [2] was 6900 nM.
In the case of Cc1cccc(-c2[nH]c(CNc3ccccc3F)nc2-c2ccc3ncnn3c2)n1 [EW–7197], the IC50 [1, 4] is reported as 103 nM, the IC50 [1, 3] is reported as 82 ± 30 nM and the IC50 [2] is reported as 18000 nM.
In the case of CCCCC[C@H](O)/C=C/[C@H]1[C@H](O)CC(=O)[C@@H]1CCCCCCC(=O)O [Alprostadil], the IC50 [1, 4] is reported as 2 nM, the IC50 [1, 3] is reported as 1.5 ± 0.7 nM and the IC50 [2] is reported as 280 nM.
In the case of CCCCC[C@H](O)/C=C/[C@H]1[C@H](O)CC(=O)[C@@H]1C/C=C\CCCC(=O)O [PGE2, prostaglandin E2], the IC50 [1, 3] is reported as 0.4 nM and the IC50 [2] is reported as 145 nM.
